# Laboratory results: PMC7189019
# Assay: On-resin head-to-side-chain macrolactonisation with cyclative cleavage: free Tyr phenol attacks the C-terminal N-acyl-MeNbz (N-acyl-N'-methylurea) resin, 10% DIEA, giving the Tyr phenyl ester
# Settings: the molecule shown is the open-chain precursor, DCM (models 1-4, rt; 1 and 4 retried in DMF at 60 C), DMF (BPC822, 60 C), scale: 1=cyclic product detected, 0=not detected
smiles,measurement,setting,value
CCCCCC(=O)N[C@@H](Cc1ccc(O)cc1)C(=O)N1CCC[C@H]1C(=O)N[C@@H](Cc1ccccc1)C(=O)N[C@H](C(=O)N[C@H](C(=O)NCC(=O)n1c(=O)n(C)c2ccc(C(=O)NCC(N)=O)cc21)C(C)C)[C@@H](C)CC,"ring closure, product found",23-membered ring,0
CCCCCC(=O)N[C@@H](Cc1ccc(O)cc1)C(=O)N[C@@H](CC(C)C)C(=O)N1CCC[C@H]1C(=O)N[C@@H](Cc1ccccc1)C(=O)N[C@H](C(=O)N[C@H](C(=O)NCC(=O)n1c(=O)n(C)c2ccc(C(=O)NCC(N)=O)cc21)C(C)C)[C@@H](C)CC,"ring closure, product found",26-membered ring,1
CCCCCC(=O)N[C@@H](Cc1ccc(O)cc1)C(=O)N[C@@H](C)C(=O)N[C@@H](CC(C)C)C(=O)N1CCC[C@H]1C(=O)N[C@@H](Cc1ccccc1)C(=O)N[C@H](C(=O)N[C@H](C(=O)NCC(=O)n1c(=O)n(C)c2ccc(C(=O)NCC(N)=O)cc21)C(C)C)[C@@H](C)CC,"ring closure, product found",29-membered ring,1
CCCCCC(=O)N[C@@H](Cc1ccc(O)cc1)C(=O)NCC(=O)N[C@@H](Cc1ccccc1)C(=O)N[C@@H](C)C(=O)N1CCC[C@H]1C(=O)N[C@@H](C)C(=O)N[C@H](C(=O)N[C@H](C(=O)NCC(=O)n1c(=O)n(C)c2ccc(C(=O)NCC(N)=O)cc21)C(C)C)[C@@H](C)CC,"ring closure, product found",32-membered ring,0
CC[C@H](C)[C@H](NC(=O)[C@@H](Cc1ccc(OC(C)(C)C)cc1)NC(=O)[C@H](CCC(=O)NC(c1ccccc1)(c1ccccc1)c1ccccc1)NC(=O)[C@@H]1CCCN1C(=O)[C@@H](NC(=O)[C@H](CCC(=O)OC(C)(C)C)NC(=O)[C@@H](NC(=O)[C@H](Cc1ccc(O)cc1)NC(=O)OC(C)(C)C)[C@@H](C)OC(C)(C)C)C(C)C)C(=O)n1c(=O)n(C)c2ccc(C(=O)NCC(N)=O)cc21,"ring closure, product found","29-membered ring, 0.5 h",1
